The subject of experiment [1] is CAL51 cells. Nature of the experiment: Cell proliferation (Cell Titer Glow), CAL51. In kind it is cell-based. To be noted: Homo sapiens, CAL-51; IG compounds, cell killing, 72 h. The procedure: (§1) Exemplary isoindolinone-glutarimide (IG) compounds of Table 1a, 1b and 1c were prepared and characterized according to the Examples herein. Certain exemplary IG compounds of(Table 1a were tested for their effects in inhibiting cellular proliferation, including CAL1 WSU-DLCL2, NCI-N87 and SKBR3. CAL51 is a human breast adenocarcinoma cell line with triple-negative status for expression of estrogen, progesterone and HER2 receptors. WSU-DLCL2 is a human B-Cell non-Hodgkin lymphoma cell line that expresses high levels of CD22. NCI-N87 is a human epithelial cell line established from a gastric carcinoma; SKBR3 is a human epithelial cell line established from a breast adenocarcinoma; both NCI-N87 and SKBR3 cell lines express high levels of HER2 receptor. […]
(§2) One day prior to treatment with compounds or IGAC, cells were plated in white 96-well plates (SKBR: 3000 cells/well; CAL-51: 4000 cells/well). Compounds or ADCs were added in a serial-dilution manner reaching the indicated concentrations. Plates were incubated at 37 degrees for 96h (ADCs) or 72h (compounds) whereafter a 1:10 dilution of Cell Titer Glow was used to measure relative cell numbers after 10 min of incubation at room temperature.

A further experiment relates to WSU-DLCL2 cells. Put plainly: Cell proliferation (Cell Titer Glow), WSU-DLCL2. It counts as cell-based. To be noted: Homo sapiens, WSUDLCL2; IG compounds, cell killing, 72 h. The procedure:
Exemplary isoindolinone-glutarimide (IG) compounds of Table 1a, 1b and 1c were prepared and characterized according to the Examples herein. Certain exemplary IG compounds of(Table 1a were tested for their effects in inhibiting cellular proliferation, including CAL1 WSU-DLCL2, NCI-N87 and SKBR3. CAL51 is a human breast adenocarcinoma cell line with triple-negative status for expression of estrogen, progesterone and HER2 receptors. WSU-DLCL2 is a human B-Cell non-Hodgkin lymphoma cell line that expresses high levels of CD22. NCI-N87 is a human epithelial cell line established from a gastric carcinoma; SKBR3 is a human epithelial cell line established from a breast adenocarcinoma; both NCI-N87 and SKBR3 cell lines express high levels of HER2 receptor.
Exemplary embodiments of the isoindolinone-glutarimide antibody conjugates (IGAC) of Formula I are compiled in Table 3. Assessment of IGAC biological activity and other properties may be conducted according to the methods of Example 102. In some instances, the Cell proliferation dose response IC50 value is an average of repetitive assays. Certain exemplary IGAC were tested for their effects in inhibiting cellular proliferation, including CAL51; WSU-DLCL2, NCI-N87 and SKBR3 cell lines. CAL51 is a human breast adenocarcinoma cell line with triple-negative status for expression of estrogen, progesterone and HER2 receptors. WSU-DLCL2 is a human B-Cell non-Hodgkin lymphoma cell line that expresses high levels of CD22. NCI-N87 is a human epithelial cell line established from a gastric carcinoma; SKBR3 is a human epithelial cell line established from a breast adenocarcinoma; both NCI-N87 and SKBR3 cell lines express high levels of HER2 receptor.
On the day of treatment, 10,000 suspension cells/well were plated in white 96-well plates. Compounds or ADCs were added in a serial-dilution manner reaching the indicated concentrations. Plates were incubated at 37 degrees for 72 h whereafter a 1:10 dilution of Cell Titer Glow was used to measure relative cell numbers after 10 min of incubation at room temperature.

In experiment [2] the test system is CAL51 cells. Nature of the experiment: Degradation assay evaluated by immunofluorescence staining, CAL51. It counts as cell-based, human. The settings on record: Homo sapiens, CAL-51, CAL51, 6 h. The procedure:
(§3) One day prior to treatment with compounds, black 96 well plates were coated with fibronectin (0.2 μg/ml in PBS) for 45 min at room temperature and subsequently washed with PBS. CAL-51 or SKBR3 cells were seeded at 30K cells/well (1001) and incubated overnight at 37° C. whereafter compounds were added reaching indicated concentrations. 6 h after treatment the medium was removed, cells were washed with PBS and fixed with 10% formalin for 20 mins at room temperature. Following two PBS washes (150 μl), cells were permeabilized in 0.1% Triton X-100 in PBS for 8 mins at room temperature and subsequently washed again twice with PBS. Cells were blocked thereafter with 1% BSA in PBS for 45 mins. Primary antibody was diluted in blocking buffer and incubated with the cells overnight at 4° C. After three washes with PBS, cells were incubated with secondary antibody for 1 h at RT, washed and subsequently images were taken on an Operetta High-Content Imager.
(§4) For the determination of the DC50, a custom algorithm implemented in the PerkinElmer image analysis software Harmony-Acapella® was used.

The subject of experiment [3] is SKBR3 cells. Nature of the experiment: Cell proliferation (Cell Titer Glow), SKBR3. In kind it is cell-based. To be noted: Homo sapiens, SK-BR-3; IG compounds, cell killing, 72 h. The procedure: as §1, §2
The subject of experiment [4] is SKBR3 cells. Nature of the experiment: Degradation assay evaluated by immunofluorescence staining, SKBR3. It counts as cell-based. The settings on record: Homo sapiens, SK-BR-3, SKBR3, 6 h. The procedure:
as §3, §4

Where only a bound is given, the exact number is not on record here.

With `CNCCOCCc1ccc(NC(=O)CCc2ccc3c(c2)CN(C2CCC(=O)NC2=O)C3=O)cc1Cl` (stereo not drawn) [IG-2, N-(3-chloro-4-(2-(2-(methylamino)ethoxy)ethyl)phenyl)-3-(2-(2,6-dioxopiperidin-3-yl)-1-oxoisoindolin-5-yl)propenamide], the IC50 with CAL51 cells [1], with WSU-DLCL2 cells and in the experiment with SKBR3 cells [3] was more than 10000 nM each time. Moreover, the maximal degradation (Dmax) in the experiment on CAL51 cells [2] is less than 5%.

On to `CNCCOCCc1ccc(NC(=O)NCc2ccc3c(c2)CN(C2CCC(=O)NC2=O)C3=O)cc1Cl` (stereo not drawn) [IG-3, 1-(3-chloro-4-(2-(2-(methylamino)ethoxy)ethyl)phenyl)-3-((2-(2,6-dioxopiperidin-3-yl)-1-oxoisoindolin-5-yl)methyl)urea], for which the IC50 is 3010 nM in the experiment with CAL51 cells [1], 66.4 nM in the experiment with WSU-DLCL2 cells and 77.5 nM in the experiment on SKBR3 cells [3]. Besides, the DC50 in the experiment on CAL51 cells [2] is 345 ± 135 nM; with SKBR3 cells [4], 185 nM. Besides, the values for the Dmax in the experiment on CAL51 cells [2] and in the experiment on SKBR3 cells [4] were 79.4 ± 3.63% and 78.2%, respectively.

`Cc1ccc(NC(=O)NCc2ccc3c(c2)CN(C2CCC(=O)NC2=O)C3=O)cc1O` (stereo not drawn) [IG-12, 1-((2-(2,6-dioxopiperidin-3-yl)-1-oxoisoindolin-5-yl)methyl)-3-(3-hydroxy-4-methylphenyl)urea] displayed an IC50 with CAL51 cells [1] of 1250 nM. The DC50 in the experiment with CAL51 cells [2] amounted to 118 ± 35 nM; with SKBR3 cells [4], 52.2 nM. Also, the Dmax in the experiment with CAL51 cells [2] turned out to be 96.8 ± 4.12%; in the experiment with SKBR3 cells [4], 98.3%.

For the compound `Cc1ccc(NC(=O)NCc2ccc3c(c2O)CN(C2CCC(=O)NC2=O)C3=O)cc1Cl` (stereo not drawn) [IG-15, 1-(3-chloro-4-methylphenyl)-3-((2-(2,6-dioxopiperidin-3-yl)-4-hydroxy-1-oxoisoindolin-5-yl)methyl)urea], the IC50 came to 54.9 nM in the experiment with CAL51 cells [1], 4.25 nM in the experiment on WSU-DLCL2 cells and 5.19 nM in the experiment with SKBR3 cells [3]. Further, the DC50 in the experiment with CAL51 cells [2] was 35.8 ± 20.4 nM; in the experiment on SKBR3 cells [4], less than 2.26 nM. Also, the Dmax in the experiment on CAL51 cells [2] is 79.2 ± 9.1%; in the experiment with SKBR3 cells [4], 91.1 ± 3.35%.

Regarding `CC(C)(C)c1ccc(NC(=O)NCc2ccc3c(c2O)CN(C2CCC(=O)NC2=O)C3=O)cc1` (stereo not drawn) [IG-26, 1-(4-(tert-butyl)phenyl)-3-((2-(2,6-dioxopiperidin-3-yl)-4-hydroxy-1-oxoisoindolin-5-y1)methyl)urea], the IC50 with CAL51 cells [1] is more than 10000 nM. The compound also registered a Dmax in the experiment with CAL51 cells [2] of 22.1%.

For the compound `CC(C)(C)c1ccccc1NC(=O)NCc1ccc2c(c1O)CN(C1CCC(=O)NC1=O)C2=O` (stereo not drawn) [IG-28, 1-(2-(tert-butyl)phenyl)-3-((2-(2,6-dioxopiperidin-3-yl)-4-hydroxy-1-oxoisoindolin-5-yl)methyl)urea], in the experiment on CAL51 cells [1], the half-maximal inhibitory concentration (IC50) stood at 22.5 nM. For the same compound, in the experiment with CAL51 cells [2], the DC50 was 46.9 nM and the Dmax is 94.2%. In addition, in the experiment with SKBR3 cells [4], the DC50 was 5.2 nM and the Dmax was determined as 90.2%.

As to `CNc1c(CNC(=O)Nc2ccc(C)c(Cl)c2)ccc2c1CN(C1CCC(=O)NC1=O)C2=O` (stereo not drawn) [IG-31, 1-(3-chloro-4-methylphenyl)-3-((2-(2,6-dioxopiperidin-3-yl)-4-(methylamino)-1-oxoisoindolin-5-yl)methyl)urea], the IC50 in the experiment with CAL51 cells [1] was more than 10000 nM. The compound further had a Dmax in the experiment on CAL51 cells [2] of 18.6%.

For `Cc1ccc(NC(=O)NCc2cc3c(cc2O)C(=O)N(C2CCC(=O)NC2=O)C3)cc1Cl` (stereo not drawn) [IG-36, 1-(3-chloro-4-methylphenyl)-3-((2-(2,6-dioxopiperidin-3-yl)-6-hydroxy-1-oxoisoindolin-5-yl)methyl)urea], the IC50 is 120 nM in the experiment on CAL51 cells [1], 4.95 nM in the experiment on WSU-DLCL2 cells and 3.5 nM in the experiment with SKBR3 cells [3]. The DC50 with CAL51 cells [2] came to 660 ± 997 nM; in the experiment with SKBR3 cells [4], 4.62 nM. The Dmax in the experiment on CAL51 cells [2] worked out at 78.5 ± 8.18%; with SKBR3 cells [4], 91.8%.

As for `Cc1ccc(C(=O)C(=O)NCc2ccc3c(c2O)CN(C2CCC(=O)NC2=O)C3=O)cc1Cl` (stereo not drawn) [IG-37, 2-(3-chloro-4-methylphenyl)-N-((2-(2,6-dioxopiperidin-3-yl)-4-hydroxy-1-oxoisoindolin-5-y1)methyl)-2-oxoacetamide], the IC50 in the experiment with CAL51 cells [1] was 72.5 nM; with WSU-DLCL2 cells, 9.6 nM; in the experiment on SKBR3 cells [3], 4.2 nM. In addition, the DC50 in the experiment on CAL51 cells [2] is 139 nM; in the experiment with SKBR3 cells [4] it was 7.88 nM. Moreover, the Dmax worked out at 70.9% in the experiment with CAL51 cells [2] and 95.2% with SKBR3 cells [4].

The compound `O=C1CCC(N2Cc3c(ccc(CNC(=O)Nc4cccc5ccccc45)c3O)C2=O)C(=O)N1` (stereo not drawn) [IG-38, 1-((2-(2,6-dioxopiperidin-3-yl)-4-hydroxy-1-oxoisoindolin-5-yl)methyl)-3-(naphthalen-1-yl)urea] showed an IC50 in the experiment with CAL51 cells [1] of 35.9 nM. In the experiment on CAL51 cells [2], this compound showed a half-maximal degradation concentration (DC50) of 113 nM and a maximal degradation (Dmax) of 93.7%. In the experiment on SKBR3 cells [4], this compound had a DC50 of 10.6 nM and a Dmax of 94.1%.

In the experiment on CAL51 cells [2], `O=C1CCC(N2Cc3c(ccc(CNC(=O)Nc4ccc5ccccc5c4)c3O)C2=O)C(=O)N1` (stereo not drawn) [IG-39, 1-((2-(2,6-dioxopiperidin-3-yl)-4-hydroxy-1-oxoisoindolin-5-yl)methyl)-3-(naphthalen-2-yl)urea] had a DC50 of 81.4 nM and a Dmax of 69.4%. In the experiment with SKBR3 cells [4], half-maximal degradation (DC50) was put at 42.7 nM and the Dmax is 77.4%. In the experiment on SKBR3 cells [3], half-maximal inhibition (IC50) required 14.1 nM.

Consider `O=C1CCC(N2Cc3c(ccc(CNC(=O)Nc4ccc(Br)c(Cl)c4)c3O)C2=O)C(=O)N1` (stereo not drawn) [IG-40, 1-(4-bromo-3-chlorophenyl)-3-((2-(2,6-dioxopiperidin-3-yl)-4-hydroxy-1-oxoisoindolin-5-yl)methyl)urea], for which the IC50 with SKBR3 cells [3] was found to be 21.3 nM.

Consider `O=C1CCC(N2Cc3c(ccc(CNC(=O)Nc4ccc(I)c(Cl)c4)c3O)C2=O)C(=O)N1` (stereo not drawn) [IG-41, 1-(3-chloro-4-iodophenyl)-3-((2-(2,6-dioxopiperidin-3-yl)-4-hydroxy-1-oxoisoindolin-5-yl)methyl)urea], for which the IC50 in the experiment with CAL51 cells [1] is 25 nM; in the experiment on SKBR3 cells [3], 17.1 nM.

`CC(C)(C)c1ccc(NC(=O)NCc2ccc3nnn(C4CCC(=O)NC4=O)c(=O)c3c2)c(O)c1` (stereo not drawn) [IG-49, 1-(4-(tert-butyl)-2-hydroxyphenyl)-3-((3-(2,6-dioxopiperidin-3-yl)-4-oxo-3,4-dihydrobenzo[d][1,2,3]triazin-6-yl)methyl)urea] gave a 50% inhibitory concentration (IC50) with SKBR3 cells [3] of 41.7 nM.

For the compound `CC(C)c1cc(NC(=O)NCc2ccc3c(c2O)CN(C2CCC(=O)NC2=O)C3=O)ccc1C(F)(F)F` (stereo not drawn) [IG-51, 1-((2-(2,6-dioxopiperidin-3-yl)-4-hydroxy-1-oxoisoindolin-5-yl)methyl)-3-(3-isopropyl-4-(trifluoromethyl)phenyl)urea], the IC50 in the experiment with WSU-DLCL2 cells is 10.2 nM; in the experiment with SKBR3 cells [3], 15.7 nM.

For the compound `O=C1CCC(N2Cc3c(ccc(CNC(=O)C(F)(F)c4ccc(Cl)cc4)c3O)C2=O)C(=O)N1` (stereo not drawn) [IG-52, 2-(4-chlorophenyl)-N-((2-(2,6-dioxopiperidin-3-yl)-4-hydroxy-1-oxoisoindolin-5-yl)methyl)-2,2-difluoroacetamide], the IC50 in the experiment on WSU-DLCL2 cells was more than 2000 nM; in the experiment on SKBR3 cells [3], 443 nM.

With `Cc1c(Cl)cc(NC(=O)NCc2ccc3c(c2)CN(C2CCC(=O)NC2=O)C3=O)cc1N1CCOC1=O` (stereo not drawn) [IG-54, 1-(3-chloro-4-methyl-5-(2-oxooxazolidin-3-yl)phenyl)-3-((2-(2,6-dioxopiperidin-3-yl)-1-oxoisoindolin-5-yl)methyl)urea], the values for the IC50 in the experiment with WSU-DLCL2 cells and with SKBR3 cells [3] were 6.9 nM and 14.5 nM, respectively.
